Measurements from patent US7138361B2, “Herbicidal heterocycles” (E. I. du Pont de Nemours and Company, priority 2000, dated 2006).

How the values were obtained:
Assay in all cases: Test C postemergence
Type in all cases: in vivo
[1] = tested on: soybean (Glycine max)
Outline: (§1)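 Test chemicals, formulated in a non-phytotoxic solvent mixture with surfactant, were applied preemergence to planted seeds or postemergence to plants 2 to 18 cm tall (1- to 4-leaf stage). After 12 to 14 days in a greenhouse, injury was visually rated against untreated controls on a 0–100 scale.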

[2] = tested on: woolly cupgrass (Eriochloa villosa)
Outline: as §1

[3] = tested on: bermudagrass (Cynodon dactylon)
Outline: as §1

[4] = tested on: morningglory (Ipomoea hederacea)
Outline: as §1

[5] = tested on: giant foxtail (Setaria faberii)
Outline: as §1

[6] = tested on: crabgrass (Digitaria sanguinalis)
Outline: as §1

[7] = tested on: cocklebur (Xanthium strumarium)
Outline: as §1

[8] = tested on: velvetleaf (Abutilon theophrasti)
Outline: as §1

[9] = tested on: Surinam grass (Brachiaria decumbens)
Outline: as §1

[10] = tested on: yellow nutsedge (Cyperus esculentus)
Outline: as §1

[11] = tested on: johnsongrass (Sorghum halepense)
Outline: as §1

[12] = tested on: goosegrass (Eleusine indica)
Outline: as §1

[13] = tested on: corn (Zea mays)
Outline: as §1

[14] = tested on: chickweed (Stellaria media)
Outline: as §1

[15] = Rate 250 g/ha, scale 0 to 100 (0 no effect, 100 complete control)
[16] = Rate 500 g/ha, scale 0 to 100 (0 no effect, 100 complete control)
[17] = Rate 125 g/ha, scale 0 to 100, 0 no effect, 100 complete control
[18] = Rate 62 g/ha, scale 0 to 100, 0 no effect, 100 complete control

COc1cc(N2CCC(n3ccc(C(C)C)n3)C2=O)ccc1Cl (stereo not shown) [Compound 120]
Plant response rating, Soybean ([1]; Rate 62 g/ha, scale 0 to 100): 30 | Plant response rating, Soybean [1, 15]: 60 | Plant response rating, Soybean [1, 16]: 60 | Plant response rating, Cupgrass, Woolly ([2]; Rate 62 g/ha, scale 0 to 100): 0 | Plant response rating, Cupgrass, Woolly [2, 15]: 0 | Plant response rating, Cupgrass, Woolly [2, 16]: 0 | Plant response rating, Bermudagrass ([3]; Rate 62 g/ha, scale 0 to 100): 0 | Plant response rating, Bermudagrass [3, 17]: 0 | Plant response rating, Bermudagrass [3, 15]: 0 | Plant response rating, Bermudagrass [3, 16]: 70 | Plant response rating, Morningglory ([4]; Rate 62 g/ha, scale 0 to 100): 0 | Plant response rating, Morningglory [4, 15]: 90 | Plant response rating, Morningglory [4, 16]: 100 | Plant response rating, Foxtail, Giant ([5]; Rate 62 g/ha, scale 0 to 100): 0 | Plant response rating, Foxtail, Giant [5, 15]: 0 | Plant response rating, Foxtail, Giant [5, 16]: 70 | Plant response rating, Crabgrass ([6]; Rate 62 g/ha, scale 0 to 100): 0 | Plant response rating, Crabgrass [6, 15]: 40 | Plant response rating, Crabgrass [6, 16]: 90 | Plant response rating, Cocklebur ([7]; Rate 62 g/ha, scale 0 to 100): 0 | Plant response rating, Cocklebur [7, 15]: 80 | Plant response rating, Cocklebur [7, 16]: 90 | Plant response rating, Velvetleaf ([8]; Rate 62 g/ha, scale 0 to 100): 0 | Plant response rating, Velvetleaf [8, 15]: 0 | Plant response rating, Velvetleaf [8, 16]: 0 | Plant response rating, Velvetleaf ([8]; scale 0 to 100): 0 | Plant response rating, Surinam grass ([9]; Rate 62 g/ha, scale 0 to 100): 0 | Plant response rating, Surinam grass [9, 17]: 0 | Plant response rating, Surinam grass [9, 15]: 0 | Plant response rating, Surinam grass [9, 16]: 0 | Plant response rating, Nutsedge ([10]; Rate 62 g/ha, scale 0 to 100): 0 | Plant response rating, Nutsedge [10, 15]: 0 | Plant response rating, Nutsedge [10, 16]: 50 | Plant response rating, Johnsongrass ([11]; Rate 62 g/ha, scale 0 to 100): 0 | Plant response rating, Johnsongrass [11, 15]: 0 | Plant response rating, Johnsongrass [11, 16]: 0 | Plant response rating, Johnsongrass ([11]; rate not given, scale 0 to 100): 0 | Plant response rating, Goosegrass ([12]; Rate 62 g/ha, scale 0 to 100): 0 | Plant response rating, Goosegrass [12, 15]: 0 | Plant response rating, Goosegrass [12, 16]: 60 | Plant response rating, Corn ([13]; Rate 62 g/ha, scale 0 to 100): 30 | Plant response rating, Corn [13, 15]: 30 | Plant response rating, Corn [13, 16]: 50 | Plant response rating, Corn ([13]; scale 0 to 100): 30

CC(C)(C)c1ccn(C2SCN(c3cccc(OC(F)(F)F)c3)C2=O)n1 (stereo not shown) [Compound 30]
Plant response rating, Soybean [1, 17]: 0 | Plant response rating, Soybean [1, 15]: 0 | Plant response rating, Soybean [1, 16]: 0 | Plant response rating, Cupgrass, Woolly [2, 17]: 30 | Plant response rating, Cupgrass, Woolly [2, 15]: 40 | Plant response rating, Cupgrass, Woolly [2, 16]: 80 | Plant response rating, Chickweed [14, 18]: 50 | Plant response rating, Chickweed [14, 17]: 60 | Plant response rating, Chickweed [14, 15]: 70 | Plant response rating, Chickweed [14, 16]: 90 | Plant response rating, Bermudagrass [3, 18]: 70 | Plant response rating, Bermudagrass [3, 17]: 80 | Plant response rating, Bermudagrass [3, 15]: 80 | Plant response rating, Bermudagrass [3, 16]: 90 | Plant response rating, Morningglory [4, 17]: 0 | Plant response rating, Morningglory [4, 15]: 40 | Plant response rating, Morningglory [4, 16]: 40 | Plant response rating, Foxtail, Giant [5, 17]: 0 | Plant response rating, Foxtail, Giant [5, 15]: 30 | Plant response rating, Foxtail, Giant [5, 16]: 80 | Plant response rating, Crabgrass [6, 17]: 30 | Plant response rating, Crabgrass [6, 15]: 30 | Plant response rating, Crabgrass [6, 16]: 90 | Plant response rating, Cocklebur [7, 17]: 30 | Plant response rating, Cocklebur [7, 15]: 30 | Plant response rating, Cocklebur [7, 16]: 50 | Plant response rating, Velvetleaf [8, 17]: 30 | Plant response rating, Velvetleaf [8, 15]: 50 | Plant response rating, Velvetleaf [8, 16]: 60 | Plant response rating, Surinam grass [9, 18]: 0 | Plant response rating, Surinam grass [9, 17]: 0 | Plant response rating, Surinam grass [9, 15]: 0 | Plant response rating, Surinam grass [9, 16]: 60 | Plant response rating, Nutsedge [10, 17]: 0 | Plant response rating, Nutsedge [10, 15]: 0 | Plant response rating, Nutsedge [10, 16]: 0 | Plant response rating, Johnsongrass [11, 17]: 0 | Plant response rating, Johnsongrass [11, 15]: 0 | Plant response rating, Johnsongrass [11, 16]: 90 | Plant response rating, Goosegrass [12, 17]: 0 | Plant response rating, Goosegrass [12, 15]: 30 | Plant response rating, Goosegrass [12, 16]: 40 | Plant response rating, Corn [13, 17]: 20 | Plant response rating, Corn [13, 15]: 30 | Plant response rating, Corn [13, 16]: 40

CCCC(C)c1ccn(C2CCN(c3ccc(Cl)c(OC)c3)C2=O)n1 (stereo not shown) [Compound 121]
Plant response rating, Soybean ([1]; Rate 62 g/ha, scale 0 to 100): 50 | Plant response rating, Soybean [1, 15]: 60 | Plant response rating, Soybean [1, 16]: 70 | Plant response rating, Cupgrass, Woolly ([2]; Rate 62 g/ha, scale 0 to 100): 0 | Plant response rating, Cupgrass, Woolly [2, 15]: 30 | Plant response rating, Cupgrass, Woolly [2, 16]: 60 | Plant response rating, Bermudagrass ([3]; Rate 62 g/ha, scale 0 to 100): 0 | Plant response rating, Bermudagrass [3, 17]: 0 | Plant response rating, Bermudagrass [3, 15]: 0 | Plant response rating, Bermudagrass [3, 16]: 0 | Plant response rating, Morningglory ([4]; Rate 62 g/ha, scale 0 to 100): 50 | Plant response rating, Morningglory [4, 15]: 70 | Plant response rating, Morningglory [4, 16]: 100 | Plant response rating, Foxtail, Giant ([5]; Rate 62 g/ha, scale 0 to 100): 0 | Plant response rating, Foxtail, Giant [5, 15]: 20 | Plant response rating, Foxtail, Giant [5, 16]: 60 | Plant response rating, Crabgrass ([6]; Rate 62 g/ha, scale 0 to 100): 0 | Plant response rating, Crabgrass [6, 15]: 40 | Plant response rating, Crabgrass [6, 16]: 60 | Plant response rating, Cocklebur ([7]; Rate 62 g/ha, scale 0 to 100): 0 | Plant response rating, Cocklebur [7, 15]: 20 | Plant response rating, Cocklebur [7, 16]: 40 | Plant response rating, Velvetleaf ([8]; Rate 62 g/ha, scale 0 to 100): 0 | Plant response rating, Velvetleaf [8, 15]: 20 | Plant response rating, Velvetleaf [8, 16]: 40 | Plant response rating, Velvetleaf ([8]; scale 0 to 100): 0 | Plant response rating, Surinam grass ([9]; Rate 62 g/ha, scale 0 to 100): 0 | Plant response rating, Surinam grass [9, 17]: 0 | Plant response rating, Surinam grass [9, 15]: 0 | Plant response rating, Surinam grass [9, 16]: 0 | Plant response rating, Nutsedge ([10]; Rate 62 g/ha, scale 0 to 100): 0 | Plant response rating, Nutsedge [10, 15]: 0 | Plant response rating, Nutsedge [10, 16]: 0 | Plant response rating, Johnsongrass ([11]; Rate 62 g/ha, scale 0 to 100): 0 | Plant response rating, Johnsongrass [11, 15]: 0 | Plant response rating, Johnsongrass [11, 16]: 0 | Plant response rating, Johnsongrass ([11]; rate not given, scale 0 to 100): 0 | Plant response rating, Goosegrass ([12]; Rate 62 g/ha, scale 0 to 100): 0 | Plant response rating, Goosegrass [12, 15]: 20 | Plant response rating, Goosegrass [12, 16]: 50 | Plant response rating, Corn ([13]; Rate 62 g/ha, scale 0 to 100): 0 | Plant response rating, Corn [13, 15]: 0 | Plant response rating, Corn [13, 16]: 40 | Plant response rating, Corn ([13]; scale 0 to 100): 0
